# Test results reported in patent US12642786B2, “Methods, compositions and kits for treating multiple sclerosis and other disorders” (The Johns Hopkins University, priority 2018, dated 2026).
# “Also recorded” adds a separate entry of the source.
# Legend:
# [1] = test system: EAE (MOG35-55 immunized mice); experiment: EAE, treatment initiated at clinical score of 1.0, clinical scoring; format: in vivo, C57BL/6J mice
# Method: (§1) Active EAE was induced in 8-12 wk-old female C57BL/6J mice that had been allowed to acclimatize to the animal facility for at least 1 wk. MOG35-55 peptide dissolved in PBS at a concentration of 2 mg/mL was mixed 1:1 with complete Freund's adjuvant to make an emulsion. On day 0, mice were immunized by injecting 50 μL of the emulsion s.c. into each of two sites on the lateral abdomen. In addition, on day 0 and again on day 2, mice were injected intraperitoneally with 250 ng pertussis toxin. Mice were weighed and scored beginning on day 7 post-immunization. Scoring was performed in a blinded manner according to the following scale:
# (§2) Bryo-1 was prepared by initially dissolving in 100% ethanol and then further diluting to 20% ethanol and 1% DMSO in PBS. The final concentration of bryo-1 was […] Mice were treated by i.p. injection of […] bryo-1 or an equal volume of vehicle control (20% ethanol and 1% DMSO in PBS) 3 d per week (Monday, Wednesday, Friday).
# In a second set of experiments, mice were randomized and treatment was begun when the mice reached a clinical score of 1.0 (corresponding to tail paralysis). In this paradigm, mice received their first treatment on the day they reached a score of 1.0, and subsequently were returned to a 3 d/week schedule in sync with the other animals.
# The effects of bryo-1 in two distinct therapeutic paradigms were analyzed. In both paradigms, treatments began after the onset of EAE, but the start of the treatments occurred at two different stages of the disease. In the first set of experiments, mice were randomized and treatment was initiated at the first clinical sign of motor weakness, corresponding to tail paralysis (FIG. 2A).
# [2] = test system: EAE (MOG35-55 immunized mice); experiment: EAE, late treatment initiated at day 28 post-immunization, clinical scoring; format: in vivo, C57BL/6J mice
# Method: as §1, §2
# In a third set of experiments, mice were randomized and treatment was begun on day 28 post-immunization, more than 10 d after peak disease and once motor deficits had reached a stable plateau.
# In another set of mice, to determine whether bryo-1 could reverse established neurologic deficits in EAE, mice were randomized and began treatment on day 28 post-immunization, more than 10 d after peak disease and once motor deficits had reached a stable plateau (FIG. 2C). […] Treatment was continued for just more than 3 wk and discontinued on day 51 post-immunization.
# neurospheres = experiment: Neurospheres, staining for oligodendrocyte marker; format: cell-based; conditions: 20 nM every other day for 1 week
# Source text: We examined the effect of bryo-1 on neurospheres, which are neural stem cell-like cells.
# [3] = test system: corpus callosum remyelination; experiment: Cuprizone-induced demyelination, Black-Gold II myelin staining; format: in vivo, C57BL/6J mice; conditions: 30 μg/kg IP every other day from re-feeding, day 8 after re-feeding
# Method: Cuprizone-induced demyelination was elicited as described by Baxi et al., Glia (2017) 65:2087-098, with minor modification. Female C57BL/6J mice (8 weeks old) were fed 0.2% cuprizone for 5 weeks to induce demyelination of the corpus callosum and then returned to normal feed. The mice (n=2 per group) were then treated with either bryo-1 (30 μg/kg) or vehicle by IP injection every other day beginning on the first day of re-feeding with normal feed, and the extent of corpus callosum remyelination was assessed by Black-Gold II myelin staining on day 8 after re-feeding.
# [4] = test system: corpus callosum, LPC demyelination; experiment: Lysolecithin (LPC)-induced demyelination, MBP staining; format: in vivo, C57BL/6J mice; conditions: 30 μg/kg IP at 3, 5, 7 and 9 dpl, assessed at 10 dpl
# Method: To evaluate the impact of systemic treatment with bryo-1 on physiologic demyelination in vivo, we conducted a lysolecithin (LPC)-induced demyelination animal study. LPC was stereotactically injected into the corpus callosum of 12-week old C57BL/6J mice. Bryo-1 (30 μg/kg) or vehicle was injected IP at 3, 5, 7, and 9 dpl followed by immunofluorescent assessment of MBP expression at 10 dpl.
# [5] = phase 2 clinical trials in humans; cited from earlier work
smiles,measurement,setting,value
"CCC/C=C/C=C/C(=O)OC1/C(=C/C(=O)OC)CC2CC(C(C)O)OC(=O)CC(O)CC3CC(OC(C)=O)C(C)(C)C(O)(CC4C/C(=C/C(=O)OC)CC(/C=C/C(C)(C)C1(O)O2)O4)O3 (stereo not drawn) [bryo-1, Bryostatin-1]",motor deficits and subsequent course of EAE,"[1]; 30 μg/kg i.p. 3 d per week, started at first clinical sign (tail paralysis, score 1.0)",substantially attenuated
same,peak clinical score vs vehicle-treated mice,[1]; treatment started at score 1.0,lower peak clinical score
same,recovery vs vehicle-treated mice,[1]; treatment started at score 1.0,faster recovery
same,clinical scores after discontinuation vs vehicle-treated group,"[2]; after discontinuation at day 51, followed through day 71",remained significantly lower; also recorded: remained below those of vehicle-treated mice
same,clinical scores throughout the treatment period and for several days after discontinuation,[2]; treatment day 28 to day 51 post-immunization,steadily improved
same,time after discontinuing at which neurologic deficits worsened,[2]; treatment discontinued on day 51 post-immunization,approximately 1 wk
same,time to improvement after treatment initiation,[2]; treatment started day 28 post-immunization,within a week of treatment initiation
same,established motor deficits,"[2]; treatment started day 28 post-immunization, 30 μg/kg i.p. 3 d per week",reversed motor deficits
same,expression of the oligodendrocyte marker 04,neurospheres,increased expression
same,rate of remyelination (extent of Black-Gold II staining),[3],increased the rate of remyelination
same,rate of oligodendrogenesis (MBP staining),[4],appears to have increased the rate of oligodendrogenesis
same,safety profile,[5],favorable safety profile
